According to patent publication US8101766B2, “Crystalline form of a biphenyl compound” (Theravance, Inc., priority 2004, dated 2012):

How the values were obtained:
[1] = tested on: acetylcholine-induced or histamine-induced bronchoconstriction; assay: Duration of bronchoprotection in guinea pig models of acetylcholine-induced or histamine-induced bronchoconstriction (model not specified for the result); type: in vivo; conditions: inhalation
Protocol: (§1) Duration of Bronchoprotection in Guinea Pig Models of Acetylcholine-Induced or Histamine-Induced Bronchoconstriction
(§2) To isolate muscarinic antagonist activity in the acetylcholine-induced bronchoconstriction model, the animals were administered propanolol, a compound that blocks β receptor activity, prior to the administration of acetylcholine. Duration of bronchoprotection in the histamine-induced bronchoconstriction model reflects β2 adrenergic receptor agonist activity.
(§3) Groups of 6 male guinea pigs (Duncan-Hartley (HsdPoc:DH) Harlan, Madison, Wis.) weighing between 250 and 350 g were individually identified by cage cards. Throughout the study, animals were allowed access to food and water ad libitum.
(§4) Test compounds were administered via inhalation over 10 minutes in a whole-body exposure dosing chamber (R&S Molds, San Carlos, Calif.). […] This value was measured gravimetrically by comparing pre- and post-nebulization weights of the filled nebulizer.
(§5) The bronchoprotective effects of test compounds administered via inhalation were evaluated using whole body plethysmography at 1.5, 24, 48 and 72 hours post-dose. […]
(§6) Once it was determined that baseline values were within the range of 0.3-0.9 mL/cm H2O for compliance and within the range of 0.1-0.199 cm H2O/mL per second for resistance, the pulmonary evaluation was initiated. […]

[2] = tested on: MCh-induced bronchoconstriction; assay: Bronchoprotection in guinea pig model of acetylcholine-induced bronchoconstriction; type: in vivo; conditions: inhalation
Protocol: as §1, §2, §3, §4, §5, §6

COc1cc(NC(=O)CCN2CCC(OC(=O)Nc3ccccc3-c3ccccc3)CC2)c(Cl)cc1CNC[C@H](O)c1ccc(O)c2[nH]c(=O)ccc12 [compound of formula I, biphenyl-2-ylcarbamic acid 1-[2-(2-chloro-4-{[(R)-2-hydroxy-2-(8-hydroxy-2-oxo-1,2-dihydroquinolin-5-yl)ethylamino]methyl}-5-methoxyphenylcarbamoyl)ethyl]piperidin-4-yl ester]
duration (PD T1/2) of brochoprotective activity [1]: at least 24 hours
bronchoprotective effect against MCh-induced bronchoconstriction [2]: dose-dependent bronchoprotective effect
